Assay results: ChEMBL document CHEMBL1201861, “Genomics of Drug Sensitity in Cancer screening data, Wellcome Trust Sanger Institute”

Legend:
D-423MG = experiment: cells; assay type: functional, cell-based; conditions: Homo sapiens
Description: SANGER: Inhibition of human D-423MG cell growth in a cell viability assay.

G-361 = experiment: cells; assay type: functional, cell-based, Homo sapiens; conditions: Homo sapiens, G-361
HCT-15 = experiment: cells; assay type: functional, cell-based, Homo sapiens; conditions: Homo sapiens, HCT-15;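 also: cell viability readout, IC50 reflecting suppression of HCT-15 cell growth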
Description: SANGER: Inhibition of human HCT-15 cell growth in a cell viability assay.

HT55 = experiment: cells; assay type: functional, cell-based, Homo sapiens; conditions: Homo sapiens, HT55;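 also: cell viability readout measuring growth inhibition of human HT55 cells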
Description: SANGER: Inhibition of human HT55 cell growth in a cell viability assay.

Kasumi 1 = experiment: cells; assay type: functional, cell-based; conditions: Homo sapiens;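 also: growth inhibition of human Kasumi-1 cells, read out by a cell viability assay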
Description: SANGER: Inhibition of human KASUMI-1 cell growth in a cell viability assay.

MEL-JUSO = experiment: cells; assay type: functional, cell-based, Homo sapiens; conditions: Homo sapiens, MEL-JUSO;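 also: growth inhibition of human MEL-JUSO cells, read out with a cell viability assay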
Description: SANGER: Inhibition of human MEL-JUSO cell growth in a cell viability assay.

NBsusSR = experiment: cells; assay type: functional, cell-based; conditions: Homo sapiens;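 also: growth inhibition of the human cell line, read out with a cell viability assay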
Description: SANGER: Inhibition of human NBsusSR cell growth in a cell viability assay.

NCI-H1703 = experiment: cells; assay type: functional, cell-based, Homo sapiens; conditions: Homo sapiens, NCI-H1703;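 also: growth inhibition of NCI-H1703 cells, read out via a cell viability assay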
Description: SANGER: Inhibition of human NCI-H1703 cell growth in a cell viability assay.

NCI-H460 = experiment: cells; assay type: functional, cell-based, Homo sapiens; conditions: Homo sapiens, NCI-H460;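 also: cell viability assay scoring growth inhibition of human NCI-H460 cells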
Description: SANGER: Inhibition of human NCI-H460 cell growth in a cell viability assay.

NCI-H630 = experiment: cells; assay type: functional, cell-based, Homo sapiens; conditions: Homo sapiens, NCI-H630;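 also: growth inhibition of NCI-H630 cells, read out with a cell viability assay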
Description: SANGER: Inhibition of human NCI-H630 cell growth in a cell viability assay.

RH-18 = experiment: cells; assay type: functional, cell-based; conditions: Homo sapiens, Rh18;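 also: growth inhibition of human RH-18 cells, read out with a cell viability assay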
Description: SANGER: Inhibition of human RH-18 cell growth in a cell viability assay.

SW 1116 = experiment: cells; assay type: functional, cell-based; conditions: Homo sapiens;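 also: growth inhibition of SW1116 cells, read out with a cell viability assay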
Description: SANGER: Inhibition of human SW1116 cell growth in a cell viability assay.

SW900 = experiment: cells; assay type: functional, cell-based; conditions: Homo sapiens;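 also: IC50 is the concentration that inhibits SW900 cell growth, measured by a cell viability assay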
Description: SANGER: Inhibition of human SW900 cell growth in a cell viability assay.

BALL-1 = experiment: cells; assay type: functional, cell-based; conditions: Homo sapiens;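 also: growth inhibition of BALL-1 cells, read out with a cell viability assay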
Description: SANGER: Inhibition of human BALL-1 cell growth in a cell viability assay.

TI-73 = experiment: cells; assay type: functional, cell-based; conditions: Homo sapiens;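 also: cell viability assay measuring how much compounds suppress growth of the cultured cell line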
Description: SANGER: Inhibition of human TI-73 cell growth in a cell viability assay.

YH-13 = experiment: cells; assay type: functional, cell-based; conditions: Homo sapiens;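 also: cell viability readout of growth suppression in the human YH-13 cell line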
Description: SANGER: Inhibition of human YH-13 cell growth in a cell viability assay.

CFPAC-1 = experiment: cells; assay type: functional, cell-based; conditions: Homo sapiens;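 also: cell viability readout used to gauge suppression of CFPAC-1 cell proliferation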
Description: SANGER: Inhibition of human CFPAC-1 cell growth in a cell viability assay.

DG-75 = experiment: cells; assay type: functional, cell-based; conditions: Homo sapiens;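 also: growth inhibition of DG-75 cells, read out with a cell viability assay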
Description: SANGER: Inhibition of human DG-75 cell growth in a cell viability assay.

Daudi = experiment: cells; assay type: functional, cell-based; conditions: Homo sapiens;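 also: growth inhibition of Daudi cells, read out by a viability assay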
Description: SANGER: Inhibition of human Daudi cell growth in a cell viability assay.

ECC4 = experiment: cells; assay type: functional, cell-based; conditions: Homo sapiens;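 also: growth inhibition of ECC4 cells, read out with a cell viability assay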
Description: SANGER: Inhibition of human ECC4 cell growth in a cell viability assay.

EVSA-T = experiment: cells; assay type: functional, cell-based, Homo sapiens; conditions: Homo sapiens, EVSA-T;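 also: growth inhibition of EVSA-T cells, read out with a cell viability assay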
Description: SANGER: Inhibition of human EVSA-T cell growth in a cell viability assay.

EW-12 = experiment: SANGER: Inhibition of human EW-12 cell growth in a cell viability assay.; assay type: functional, cell-based
GDM-1 = experiment: cells; assay type: functional, cell-based; conditions: Homo sapiens;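 also: cell viability readout used to measure growth inhibition of human GDM-1 cells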
Description: SANGER: Inhibition of human GDM-1 cell growth in a cell viability assay.

KMS-12-PE = experiment: cells; assay type: functional, cell-based; conditions: Homo sapiens;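 also: growth inhibition of human KMS-12-PE cells, measured with a cell viability assay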
Description: SANGER: Inhibition of human KMS-12-PE cell growth in a cell viability assay.

LC4-1 = experiment: cells; assay type: functional, cell-based; conditions: Homo sapiens;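 also: growth inhibition of LC4-1 cells, read out with a cell viability assay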
Description: SANGER: Inhibition of human LC4-1 cell growth in a cell viability assay.

LP-1 = experiment: cells; assay type: functional, cell-based; conditions: Homo sapiens;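 also: growth inhibition of human LP-1 cells, with the read-out taken from a cell viability assay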
Description: SANGER: Inhibition of human LP-1 cell growth in a cell viability assay.

MC-CAR = experiment: cells; assay type: functional, cell-based; conditions: Homo sapiens;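 also: growth inhibition of the human MC-CAR cell line, read out by a cell viability assay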
Description: SANGER: Inhibition of human MC-CAR cell growth in a cell viability assay.

MDA-MB-134-VI = experiment: cells; assay type: functional, cell-based; conditions: Homo sapiens
Description: SANGER: Inhibition of human MDA-MB-134-VI cell growth in a cell viability assay.

MHH-CALL-2 = experiment: cells; assay type: functional, cell-based; conditions: Homo sapiens;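 also: growth inhibition of the cell line, read out in a cell viability assay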
Description: SANGER: Inhibition of human MHH-CALL-2 cell growth in a cell viability assay.

NCI-H128 = experiment: SANGER: Inhibition of human NCI-H128 cell growth in a cell viability assay.; assay type: functional, cell-based
NCI-H2081 = experiment: cells; assay type: functional, cell-based; conditions: Homo sapiens;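 also: growth inhibition of human NCI-H2081 cells, read out with a cell viability assay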
Description: SANGER: Inhibition of human NCI-H2081 cell growth in a cell viability assay.

OPM-2 = experiment: cells; assay type: functional, cell-based; conditions: Homo sapiens;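 also: growth of OPM-2 cells measured with a viability assay, IC50 for suppression of proliferation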
Description: SANGER: Inhibition of human OPM-2 cell growth in a cell viability assay.

RL = experiment: cells; assay type: functional, cell-based; conditions: Homo sapiens
Description: SANGER: Inhibition of human RL cell growth in a cell viability assay.

Raji = experiment: cells; assay type: functional, cell-based; conditions: Homo sapiens;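 also: cell viability assay measuring inhibition of Raji cell growth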
Description: SANGER: Inhibition of human Raji cell growth in a cell viability assay.

SKM-1 = experiment: SANGER: Inhibition of human SKM-1 cell growth in a cell viability assay.; assay type: functional, cell-based
ST486 = experiment: SANGER: Inhibition of human ST486 cell growth in a cell viability assay.; assay type: functional, cell-based
BL-70 = experiment: SANGER: Inhibition of human BL-70 cell growth in a cell viability assay.; assay type: functional, cell-based
TUR = experiment: cells; assay type: functional, cell-based; conditions: Homo sapiens;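 also: growth inhibition of human TUR cells, read out with a cell viability assay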
Description: SANGER: Inhibition of human TUR cell growth in a cell viability assay.

YT = experiment: cells; assay type: functional, cell-based; conditions: Homo sapiens
Description: SANGER: Inhibition of human YT cell growth in a cell viability assay.

EHEB = experiment: cells; assay type: functional, cell-based; conditions: Homo sapiens;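 also: growth inhibition of human EHEB cells, read out with a cell viability assay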
Description: SANGER: Inhibition of human EHEB cell growth in a cell viability assay.

SMILES | IC50 (Kasumi 1) [µM] | IC50 (DG-75) [µM] | IC50 (Daudi) [µM] | IC50 (ECC4) [µM] | IC50 (EVSA-T) [µM] | IC50 (EW-12) [µM] | IC50 (GDM-1) [µM] | IC50 (KMS-12-PE) [µM] | IC50 (LC4-1) [µM] | IC50 (LP-1) [µM] | IC50 (MC-CAR) [µM] | IC50 (MDA-MB-134-VI) [µM] | IC50 (MHH-CALL-2) [µM] | IC50 (NCI-H128) [µM] | IC50 (NCI-H2081) [µM] | IC50 (OPM-2) [µM] | IC50 (RL) [µM] | IC50 (Raji) [µM] | IC50 (SKM-1) [µM] | IC50 (ST486) [µM] | other results
Nc1ccn([C@@H]2O[C@H](CO)[C@@H](O)[C@@H]2O)c(=O)n1 [CYTARABINE] | > 2 | – | – | – | – | – | – | – | – | – | – | – | – | – | – | – | – | – | – | – | IC50 (D-423MG): 0.299 µM; IC50 (G-361): > 2 µM; IC50 (HCT-15): > 2 µM; IC50 (HT55): > 2 µM; IC50 (MEL-JUSO): 0.0858 µM; IC50 (NBsusSR): 0.335 µM; IC50 (NCI-H1703): 0.0498 µM; IC50 (NCI-H460): > 2 µM; IC50 (NCI-H630): > 2 µM; IC50 (RH-18): > 2 µM; IC50 (SW 1116): > 2 µM; IC50 (SW900): 1.62 µM; IC50 (BALL-1): > 2 µM; IC50 (TI-73): 0.613 µM; IC50 (YH-13): 0.328 µM; IC50 (CFPAC-1): 1.06 µM
C=C1C(=O)O[C@@H]2C3O[C@]3(C)CC/C=C(\C)CC[C@@H]12 (stereo partly drawn) | > 5 | > 5 | > 5 | > 5 | > 5 | > 5 | > 5 | > 5 | > 5 | > 5 | > 5 | > 5 | > 5 | > 5 | > 5 | > 5 | > 5 | > 5 | > 5 | > 5 | IC50 (BL-70): > 5 µM; IC50 (TUR): > 5 µM; IC50 (YT): > 5 µM
CNC(=O)c1cc(Oc2ccc(NC(=O)Nc3ccc(Cl)c(C(F)(F)F)c3)cc2)ccn1 [SORAFENIB] | > 4 | > 4 | > 4 | > 4 | > 4 | > 4 | 0.907 | > 4 | > 4 | > 4 | > 4 | > 4 | > 4 | > 4 | > 4 | > 4 | > 4 | > 4 | > 4 | 3.84 | IC50 (BL-70): > 4 µM; IC50 (TUR): > 4 µM; IC50 (YT): > 4 µM
CS(=O)(=O)CCNCc1ccc(-c2ccc3ncnc(Nc4ccc(OCc5cccc(F)c5)c(Cl)c4)c3c2)o1 [LAPATINIB] | > 2 | > 2 | > 2 | > 2 | > 2 | > 2 | > 2 | > 2 | > 2 | > 2 | > 2 | > 2 | > 2 | > 2 | > 2 | > 2 | > 2 | > 2 | > 2 | > 2 | IC50 (EHEB): > 2 µM; IC50 (BL-70): > 2 µM; IC50 (TUR): > 2 µM; IC50 (YT): > 2 µM
CN(C)C/C=C/C(=O)Nc1cc2c(Nc3ccc(F)c(Cl)c3)ncnc2cc1O[C@H]1CCOC1 [AFATINIB] | 0.00911 | – | – | – | – | – | – | – | – | – | – | – | – | – | – | – | – | – | – | – | IC50 (D-423MG): > 0.5 µM; IC50 (G-361): > 0.5 µM; IC50 (HCT-15): > 0.5 µM; IC50 (HT55): > 0.5 µM; IC50 (MEL-JUSO): > 0.5 µM; IC50 (NBsusSR): > 0.5 µM; IC50 (NCI-H1703): > 0.5 µM; IC50 (NCI-H460): > 0.5 µM; IC50 (NCI-H630): > 0.5 µM; IC50 (RH-18): > 0.5 µM; IC50 (SW 1116): > 0.5 µM; IC50 (SW900): > 0.5 µM; IC50 (BALL-1): > 0.5 µM; IC50 (TI-73): 0.147 µM; IC50 (YH-13): > 0.5 µM; IC50 (CFPAC-1): > 0.5 µM
CC1=C2C[C@H]3[C@@H](CC=C4C[C@@H](O)CC[C@@]43C)[C@@H]2CC[C@]12O[C@@H]1C[C@H](C)CN[C@H]1[C@H]2C [CYCLOPAMINE] | > 16 | > 16 | > 16 | > 16 | > 16 | > 16 | > 16 | > 16 | > 16 | > 16 | > 16 | > 16 | > 16 | > 16 | > 16 | > 16 | > 16 | > 16 | > 16 | > 16 | IC50 (BL-70): > 16 µM; IC50 (TUR): > 16 µM; IC50 (YT): > 16 µM
O=C(NOCC1CC1)c1ccc(F)c(F)c1Nc1ccc(I)cc1Cl [CI-1040] | 0.399 | – | – | – | – | – | – | – | – | – | – | – | – | – | – | – | – | – | – | – | IC50 (D-423MG): 3.08 µM; IC50 (G-361): 0.368 µM; IC50 (HCT-15): > 10 µM; IC50 (MEL-JUSO): 5.74 µM; IC50 (NBsusSR): 5.57 µM; IC50 (NCI-H1703): > 10 µM; IC50 (NCI-H460): > 10 µM; IC50 (NCI-H630): > 10 µM; IC50 (RH-18): > 10 µM; IC50 (SW 1116): 1.56 µM; IC50 (SW900): > 10 µM; IC50 (BALL-1): > 10 µM; IC50 (TI-73): > 10 µM; IC50 (YH-13): > 10 µM; IC50 (CFPAC-1): > 10 µM
